Test results: PMC7320011, “Rationally designed ruthenium complexes for 1- and 2-photon photodynamic therapy” (Nature Communications, 2020)
Like-named read-outs stand apart in the source and are kept apart here.

Tests used:
[1] = Singlet oxygen quantum yield, direct evaluation (1O2 phosphorescence); assay type: physicochemical
Procedure: Direct evaluation: the sample was prepared in an air-saturated acetonitrile or deuterated water solution with an absorption of 0.2 at 450 nm. The sample was irradiated at 450 nm with a mounted M450LP1 LED (Thorlabs), whose light was focused with aspheric condenser lenses. Using a T-Cube LED Driver (Thorlabs), the intensity of the irradiation was varied and monitored with an optical power and energy meter. The emission was focused at right angle to the excitation pathway and directed to a Princeton Instruments Acton SP-2300i monochromator. To cut off light at wavelengths shorter than 850 nm, a longpass glass filter was placed in front of the monochromator entrance slit. The signal was detected with an EO-817L IR-sensitive liquid-nitrogen cooled germanium diode detector (North Coast Scientific Corp.). The luminescence signal, centered at 1270 nm, was measured from 1100 to 1400 nm. The obtained data were analyzed upon plotting the integrated luminescence peaks against the percentage of the irradiation intensity. The slope of the linear regression was calculated and compared with the reference Rose Bengal (Φ = 76%)[59]. The absorption of the sample was corrected with an absorption correction factor. The singlet oxygen quantum yields were calculated using the following formula:4 Φsample=Φreference×Ssample/Sreference×Ireference/Isample, 5 I=I0×1−10^-A.
Φ = singlet oxygen quantum yield, S = slope of the linear regression of the plot of the areas of the singlet oxygen luminescence peaks against the irradiation intensity, I = absorption correction factor, I0 = light intensity of the irradiation source, and A = absorption of the sample at irradiation wavelength.

[2] = tested on: human glioblastoma astrocytoma (U373) cells;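 also: Resazurin-to-resorufin fluorescence viability readout, 8 h compound exposure then medium change, light dose 3.1 J cm^−2 at 480 nm or 9.5 J cm^−2 at 540 nm, analysed 40 h later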
Procedure: (§1) A total of 4 × 10^3 cells were seeded on 96-well plates and allowed to adhere overnight. The cells were treated with increasing concentrations of the sample diluted in cell media achieving a total volume of 200 μL. The cells were incubated with the sample for 8 h and, after this time, the medium refreshed. To study the phototoxic effect of the sample, the cells were exposed to 480 nm (spectral half-width: 20 nm, 10 min, 5.2 mW cm^−2, 3.1 J cm^−2) or 540 nm (spectral half-width: 30 nm, 40 min, 4.0 mW cm^−2, 9.5 J cm^−2) light using an Atlas Photonics LUMOS BIO irradiator. To study the dark cytotoxicity of the sample, the cells were not irradiated and the medium exchanged. The cells were grown for an additional 40 h at 37 °C. After this time, the medium was replaced with fresh medium containing resazurin with a final concentration of 0.2 mg mL^−1. The cells were incubated for 4 h and the amount of the fluorescent product resorufin determined (λex = 540 nm, λem = 590 nm) with a SpectraMax M2 Microplate Reader (Molecular Devices). The obtained data was analyzed with the GraphPad Prism software.

[3] = tested on: noncancerous retinal pigment epithelium (RPE-1) cells; assay: (Photo-)cytotoxicity on 2D cell monolayers, RPE-1; conditions: for IC50: 1-3 as chloride salts
Procedure: as §1

[4] = Two-photon absorption cross section; assay type: physicochemical; conditions: dichloromethane
Procedure: The two-photon absorption cross section spectra of the sample was determined upon direction comparison to Rhodamine B. The sample was irradiated with an OpoletteTM 355II (pulse width ≤ 100 fs, 80 MHz repetition rate, Spectra Physics Inc.) laser. The experimental excitation and detection conditions were conducted with negligible reabsorption processes, which could affect two-photon absorption measurements. The quadratic dependence of the two-photon induced luminescence intensity on the excitation power was verified at an excitation wavelength of 800 nm. The two-photon absorption cross section was calculated using the following equation:1 σ2,sample=σ2,reference×Φreference×creference×Isample×nsample/Φsample×csample×Ireference×nreference,
σ2 = two-photon cross section, Φ = luminescence quantum yield, c = concentration, I = integrated luminescence intensity, n = refractive index

Excited state lifetime = assay type: physicochemical
Procedure: The sample was prepared in an air saturated as well as a degassed acetonitrile solution with an absorption of 0.2 at 355 nm. The sample was irradiated at 355 nm with a NT342B Nd-YAG pumped optical parametric oscillator (Ekspla). The emission was focused at right angle to the excitation pathway and directed to a Princeton Instruments Acton SP-2300i monochromator. The signal was detected with a R928 photomultiplier tube (Hamamatsu).

[5] = tested on: human cervical carcinoma (HeLa) cells; assay: (Photo-)cytotoxicity on 2D cell monolayers, HeLa; assay type: cell-based; conditions: for IC50: 1-3 as chloride salts
Procedure: as §1

[6] = tested on: human glioblastoma astrocytoma (U373) cells; assay: (Photo-)cytotoxicity on 2D cell monolayers, U373; conditions: for IC50: 1-3 as chloride salts;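 as to all read-outs here: Resazurin-to-resorufin fluorescence viability readout, 8 h compound exposure then medium change, light dose 3.1 J cm^−2 at 480 nm or 9.5 J cm^−2 at 540 nm, analysed 40 h later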
Procedure: as §1

[7] = tested on: mouse colon carcinoma (CT-26) cells
Procedure: as §1

[8] = Emission and luminescence quantum yield; assay type: physicochemical; conditions: acetonitrile
Procedure: The absorption spectra of the sample was measured with a SpectraMax M2 Spectrometer (Molecular Devices). For the measurements of the emission, the sample was irradiated at 355 nm with a NT342B Nd-YAG pumped optical parametric oscillator (Ekspla). The emission was focused at right angle to the excitation pathway and directed to a Princeton Instruments Acton SP-2300i monochromator. The signal was detected with a XPI-Max 4 CCD camera (Princeton Instruments).
The sample was prepared in an acetonitrile solution with an absorption of 0.1 at 355 nm. The sample was irradiated at 355 nm with a NT342B Nd-YAG pumped optical parametric oscillator (Ekspla). The emission was focused at right angle to the excitation pathway and directed to a Princeton Instruments Acton SP-2300i monochromator. The signal was detected with a XPI-Max 4 CCD camera (Princeton Instruments). The luminescence quantum yields were determined by comparison with the reference [Ru(2,2′-bipyridine)3]Cl2 in acetonitrile (Φem = 5.9%)[58] applying the following formula:2 Φem,sample=Φem,reference×Freference/Fsample×Isample/Ireference×nsample/nreference^2, 3 F=1−10^-A. Φem = luminescence quantum yield, F = fraction of light absorbed, I = integrated emission intensities, n = refractive index, A = absorbance of the sample at irradiation wavelength.

[9] = Photostability (absorption spectra upon irradiation); assay type: physicochemical; conditions: 450 nm, 0 to 10 min (13.2 J cm^−2), air-saturated acetonitrile
[10] = tested on: mouse colon carcinoma (CT-26) cells; assay: (Photo-)cytotoxicity on 2D cell monolayers, CT-26; conditions: for IC50: 1-3 as chloride salts
Procedure: as §1

COc1ccc(/C=C/c2ccnc(-c3cc(/C=C/c4ccc(OC)cc4)ccn3)c2)cc1.COc1ccc(/C=C/c2ccnc(-c3cc(/C=C/c4ccc(OC)cc4)ccn3)c2)cc1.COc1ccc(/C=C/c2ccnc(-c3cc(/C=C/c4ccc(OC)cc4)ccn3)c2)cc1.F[P-](F)(F)(F)(F)F.F[P-](F)(F)(F)(F)F.[Ru+2] [compound 3, [Ru((E,E′)-4,4′-Bis[p-methoxystyryl]-2,2′-bipyridine)3][PF6]2]
Singlet oxygen quantum yield, Direct 450 nm CH3CN [1]: 52% | IC50 [2]: 51.3 µM | PI (480 nm) ([3]; RPE-1, dark vs 480 nm): > 1.9 | PI (540 nm) ([3]; RPE-1, dark vs 540 nm): > 2.2 | IC50 ([3]; read-out: IC50 540 nm (40 min, 9.5 J cm-2), RPE-1, 540 nm): 44.9 µM | IC50 ([3]; read-out: IC50 dark, RPE-1, dark): > 100 µM | σ2, 2P absorption cross section [4]: 573 GM | τ air, excited state lifetime (Excited state lifetime; air saturated acetonitrile): 76 ns | τ degassed, excited state lifetime (Excited state lifetime; degassed acetonitrile): 338 ns | IC50 ([5]; 480 nm, read-out: IC50 480 nm (10 min, 3.1 J cm-2)): 15.3 µM | IC50 ([5]; 540 nm, read-out: IC50 540 nm (40 min, 9.5 J cm-2)): 11.3 µM | PI (480 nm) ([5]; dark vs 480 nm): > 6.5 | PI (540 nm) ([5]; dark vs 540 nm): > 8.8 | IC50 ([5]; dark, read-out: IC50 dark): > 100 µM | PI (480 nm) ([6]; U373, dark vs 480 nm): > 2.4 | PI (540 nm) ([6]; U373, dark vs 540 nm): > 1.9 | IC50 ([6]; read-out: IC50 480 nm (10 min, 3.1 J cm-2), U373, 480 nm): 41 µM | IC50 ([6]; read-out: IC50 dark, U373, dark): > 100 µM | IC50 [7]: 19.3 µM | Φem, luminescence quantum yield [8]: 1.1% | λem, emission maximum [8]: 682 nm | photostability (change of absorption spectra upon irradiation) [9]: no significant differences in the absorption spectra | PI (480 nm) ([10]; CT-26, dark vs 480 nm): > 5.2 | PI (540 nm) ([10]; CT-26, dark vs 540 nm): > 4.3 | IC50 ([10]; read-out: IC50 540 nm (40 min, 9.5 J cm-2), CT-26, 540 nm): 23 µM | IC50 ([10]; read-out: IC50 dark, CT-26, dark): > 100 µM
